{"source": "patent US20120052079A1", "about": "“Compositions, Kits, and Methods for Predicting Anti-Cancer Response to Anthracyclines” (Dana-Farber Cancer Institute, Inc., priority 2010, published 2012)", "assay_type_in_all_cases": "cell-based, human", "key": {"HMEC cells": {"test_system": "HMEC cells", "test": "Cell growth assay (CellTiter 96), drug IC50 in HMEC transfected with LAPTM4B-HA or YWHAZ-HA", "settings": "for effect of exogenous LAPTM4B or YWHAZ on sensitivity to drug: HMEC expressing exogenous LAPTM4B or YWHAZ", "from_the_text": "The full length LAPTM4B and YWHAZ cDNAs linked to an HA tag were cloned into the pWZL (Boehm et al. (2005) Mol. Cell. Biol. 25, 6464-6474) and pBabe vectors, respectively, and packaged using the Phoenix™ Retroviral System from Orbigen. pWZL-LAPTM4B HA and pBabe-YWHAZ-HA were introduced into HMEC cells by retroviral infection and stably selected with blasticidin and puromycin, respectively.\n(§1) Viable cell number was quantified using CellTiter 96® Aqueous One Solution Cell Proliferation Assay (Promega). Results are reported as optical density at 490 nm wavelength. Cells (4,000 well^−1) were seeded into 96-well plates in triplicate. siRNA transfections were performed 24 h after cell seeding. Chemotherapeutic drugs (daunorubicin, doxorubicin, paclitaxel, and cisplatin) were added 24 h after cell seeding or siRNA transfection. Cells were exposed to a series of concentrations of individual drugs for additional 48 h. Results are presented as the percentage of viable cells in drug-treated wells vs. media-treated control wells and plotted as a drug-dose dependent cell survive curve. The dose of drug causing a fifty percent reduction of viable cells (IC50) determined drug sensitivity. Drug-induced apoptosis was evaluated 48 h after drug treatment (doxorubicin at 1 μM or cisplatin at 25 μM) following siRNA transfection by detection of active caspase 3 and cleaved poly(ADP-ribose) polymerase (PARP) by Western blot analysis using caspase 3- and PARP-specific antibodies (Cell Signaling Technology), respectively."}, "[1]": {"test_system": "MDA-MB-231 (MDA231), HCC38 and CAMA-1", "test": "Cell growth assay, drug sensitivity after LAPTM4B/YWHAZ siRNA knockdown", "settings": "siRNA knockdown vs control siRNA", "protocol": "Gene-specific and negative control oligonucleotides (Stealth™ Select RNAi, Invitrogen) were transfected using the Lipofectamine™ RNAi MAX protocol from Invitrogen. Three gene-specific oligonucleotide siRNAs were tested for each gene (LAPTM4b siRNA1: 5′-[…]-3′ and 3′-[…]-5′; LAPTM4b siRNA2: 5′-[…]-3′ and 3′-[…]-5′; LAPTM4b siRNA3: 5′-[…]-3′ and 3′-[…]-5′; LAPTM4b shRNA: Top strand, […], Bottom strand, […]; YWHAZ siRNA1: 5′-[…]-3′ and 3′-[…]-5′; YWHAZ siRNA2: 5′-[…]-3′ and 3′-[…]-5′; and YWHAZ siRNA3: 5′-[…]-3′ and 3′-[…]-5′). Transfections were performed in triplicate and the experiment was repeated four times to estimate the effect and standard deviation from the mean. Because specific antibodies were not available for the 12 genes tested, the effectiveness of siRNA knockdown by each oligonucleotide was determined by qRT-PCR assay of mRNA levels according to methods described herein.\nas §1"}, "MDA468 cells": {"test_system": "MDA468 cells", "test": "Autophagy markers LC3 and p62 by immunoblot, LAPTM4B overexpression", "settings": "MDA468 with stable LAPTM4B over expression", "from_the_text": "Band densities were quantified on a AlphaImager HP imaging system (Cell Biosciences)."}, "[2]": {"test_system": "MDA-MB-231 (MDA231) and BT549 cells", "test": "Drug-induced apoptosis, Western blot for active caspase 3 and cleaved PARP", "settings": "doxorubicin 1 μM or cisplatin 25 μM, 48 h", "protocol": "as §1"}, "MDA-MB-231 cells": {"test_system": "MDA-MB-231 cells", "test": "Cellular distribution of doxorubicin (autofluorescence)", "settings": "0.5 μM doxorubicin; detectable within 12 h to 24 h, sustained at 48 h"}, "BT549 cells [3]": {"test_system": "BT549 cells", "test": "Cellular distribution of doxorubicin (autofluorescence, confocal)", "protocol": "Twenty-four h after transfection with specific siRNA or control oligos, cells were challenged with 0.5 μM doxorubicin in complete medium for 24 h. After 24 h, the drug was removed and cells were cultured in fresh drug-free medium and examined at 36 and 48 h time points. At each time point, cells were washed twice in PBS, and fixed for 5 min in 3.0% paraformaldehyde and permeabilized in 0.1% Triton X-100 for 5 min. Following washing with PBS, cells were mounted in Prolong Gold® anti-fade reagent with DAPI (Invitrogen). Subcellular localization of doxorubicin was viewed by the Rhodamine (Cy3) channel and nuclear staining was viewed by the DAPI channel on a Zeiss HAL100 fluorescence microscope.\nForty-eight hours after transfection with specific siRNA or scramble control oligonucleotide, cells were treated with 0.1 μM doxorubicin in complete medium for 24 hours. After 24 hours of drug exposure, the drug was removed and cells were cultured in fresh drug-free medium and examined 24 hours later. Cells were washed, fixed and stained with DAPI as described in Li et al. (2010) Nat. Med., 16, 214-218. Subcellular localization of doxorubicin autofluorescence (excited wave: 480 nm; emitted wave: 560-620 nm) and lysosomes indicated by LysoTracker DND-26 (excited wave: 504 nm; emitted wave: 509-540 nm) was examined on a Leica SP5X Laser Scanning Confocal Microscope with a white light laser."}, "BT549 cells [4]": {"test_system": "BT549 cells", "test": "Cathepsin release and Bid, caspase 3, PARP cleavage by immunoblot", "settings": "for LAPTM4B knockdown-induced Bid truncation and apoptosis: BT549 pretreated with cathepsin inhibitors", "protocol": "Cytosolic extraction was performed using the detergent digitonin which permeabilizes cholesterol-rich membranes such as plasma membrane, leaving the cholesterol-poor membranes of lysosomes and mitochondria more or less intact. Cells were exposed to an extraction buffer (250 mM sucrose, 20 mM Hepes, 10 mM KCl, 1.5 mM MgCl2, 1 mM EDTA, 1 mM EGTA, and 1 mM Pefabloc, pH 7.5) containing 25 μg/ml digitonin for 20 min on ice, inverting the tubes every 2 min. The extraction buffer was collected and proteins were precipitated by addition of 5% trichloric acid on ice for 10 min and centrifuged at ˜20,800×g for 15 min to obtain the protein pellet. The pellet was dissolved in lysis buffer.\nTumor cell line lysates or cytosols were fractionated in 7, 12 or 14% SDS-PAGE, electrophoretically transferred to a nitrocellulose membrane and probed with primary antibodies (monoclonal Anti-β-Actin antibody (Sigma), anti-Bid (BD PharMingen), anti-caspase 3, anti-H is, anti-LC3 and anti-PARP antibodies (Cell Signaling Technology), and anti-cathepsin B, anti-cathepsin D, anti-p62, HRP-conjugated secondary antibodies and FITC-conjugated secondary antibodies (Abcam). The probed proteins were visualized using the ECL Western blotting detection system from Pierce according to the manufacturer's instructions. Band densities were quantified on a AlphaImager HP imaging system (Cell Biosciences)."}, "[5]": {"settings": "BT549 pretreated with pan-caspase inhibitor"}}, "data": [{"compound": "CC(=O)O[C@H]1C(=O)[C@@]2(C)[C@H]([C@H](OC(=O)c3ccccc3)[C@]3(O)C[C@H](OC(=O)[C@H](O)[C@@H](NC(=O)c4ccccc4)c4ccccc4)C(C)=C1C3(C)C)[C@]1(OC(C)=O)CO[C@@H]1C[C@@H]2O", "note": "[paclitaxel]", "values": [{"measurement": "effect of exogenous LAPTM4B or YWHAZ on sensitivity to drug", "setting": "HMEC cells", "result": "no significant effect"}, {"measurement": "sensitivity to drug after specific knockdown of LAPTM4B and YWHAZ", "setting": "[1]", "result": "weaker or no effect"}]}, {"compound": "COc1cccc2c1C(=O)c1c(O)c3c(c(O)c1C2=O)C[C@@](O)(C(C)=O)C[C@@H]3O[C@H]1C[C@H](N)[C@H](O)[C@H](C)O1", "note": "[daunorubicin]", "values": [{"measurement": "sensitivity to drug after specific knockdown of LAPTM4B and YWHAZ", "setting": "[1]", "result": "increased sensitivity"}]}, {"compound": "CCN(CC)CCCC(C)Nc1ccnc2cc(Cl)ccc12", "note": "(stereo not drawn) [chloroquine]", "values": [{"measurement": "starvation-induced autophagy (higher LC3II, lower p62) by LAPTM4B over expression", "setting": "MDA468 cells", "result": "blocked"}]}, {"compound": "COc1cccc2c1C(=O)c1c(O)c3c(c(O)c1C2=O)C[C@@](O)(C(=O)CO)C[C@@H]3O[C@H]1C[C@H](N)[C@H](O)[C@H](C)O1", "note": "[doxorubicin]", "values": [{"measurement": "increase in IC50 of doxorubicin", "setting": "HMEC cells; HMEC expressing exogenous LAPTM4B vs control vector, P<0.002", "result": 270, "unit": "%"}, {"measurement": "increase in IC50 of doxorubicin", "setting": "HMEC cells; HMEC expressing exogenous YWHAZ vs control vector, P=0.0001", "result": 394, "unit": "%"}, {"measurement": "sensitivity to drug after specific knockdown of LAPTM4B and YWHAZ", "setting": "[1]", "result": "increased sensitivity"}, {"measurement": "drug-induced apoptosis after knockdown of LAPTM4B or YWHAZ", "setting": "[2]", "result": "considerably increased"}, {"measurement": "nuclear localization of doxorubicin after LAPTM4B siRNA knockdown", "setting": "MDA-MB-231 cells", "result": "substantial increase in nuclear localization"}, {"measurement": "doxorubicin distribution after down-regulation of LAPTM4B", "setting": "BT549 cells [3]; BT549, LAPTM4B-specific siRNA, 48 hours exposure", "result": "release of doxorubicin from lysosomes"}, {"measurement": "intracellular distribution of doxorubicin autofluorescence", "setting": "BT549 cells [3]; BT549 overexpressing LAPTM4B, Lysotracker green DND-26", "result": "co-localizes with the lysosome marker"}]}, {"compound": "pepstatin A", "values": [{"measurement": "LAPTM4B knockdown-induced Bid truncation and apoptosis", "setting": "BT549 cells [4]", "result": "protected"}]}, {"compound": "CCOC(=O)[C@H]1O[C@@H]1C(=O)N[C@@H](CC(C)C)C(=O)NCCC(C)C", "note": "(relative stereo) [EST, trans-epoxysuccinyl-L-leucylamindo-3-methylbutane ethyl ester]", "values": [{"measurement": "LAPTM4B knockdown-induced Bid truncation and apoptosis", "setting": "BT549 cells [4]", "result": "protected"}]}, {"compound": "N.N.[Cl][Pt][Cl]", "note": "[cisplatin]", "values": [{"measurement": "effect of exogenous LAPTM4B or YWHAZ on sensitivity to drug", "setting": "HMEC cells", "result": "no significant effect"}, {"measurement": "sensitivity to drug after specific knockdown of LAPTM4B and YWHAZ", "setting": "[1]", "result": "weaker or no effect"}, {"measurement": "drug-induced apoptosis after knockdown of LAPTM4B or YWHAZ", "setting": "[2]", "result": "less apparent"}]}, {"compound": "z-Val-Ala-Asp-fluoromethylketone [z-VAD-FMK]", "values": [{"measurement": "Bid truncation after LAPTM4B knockdown", "setting": "BT549 cells [4]; [5]", "result": "did not prevent Bid truncation"}, {"measurement": "caspase 3 activation after LAPTM4B knockdown", "setting": "BT549 cells [4]; [5]", "result": "sufficient to abrogate caspase 3 activation"}]}]}
